Substitutions are numbered along the chain they refer to. Marks after values point to notes of the source that are not given here.
Assays:
Assay type in all cases: cell-based
MAS I191A mutant = molecular target: T1, MAS I191A mutant (Homo sapiens, UniProt P04201, I191A); test: IP1 assay, I191A MAS mutant stable cell line
T1 construct: expressed in transfected cells
T1 sequence (P04201 1-325 I191A): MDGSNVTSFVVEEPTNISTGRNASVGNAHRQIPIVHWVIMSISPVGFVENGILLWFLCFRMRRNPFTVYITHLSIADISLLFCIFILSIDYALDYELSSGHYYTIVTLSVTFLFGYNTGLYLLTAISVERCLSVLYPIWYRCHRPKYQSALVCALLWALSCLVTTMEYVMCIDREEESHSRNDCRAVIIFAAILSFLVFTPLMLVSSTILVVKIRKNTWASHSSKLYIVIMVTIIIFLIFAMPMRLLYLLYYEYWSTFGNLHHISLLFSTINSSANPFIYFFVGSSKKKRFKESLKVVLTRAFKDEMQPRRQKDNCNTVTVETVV
Source text: (§1) The WT MAS expression construct was synthesized with an N-terminal myc-tag (Figure 1) by GenScript (Piscataway, NJ). The myc-tagged WT MAS from this vector was initially sub-cloned into pcDNA3.1 and later sub-cloned into tetracycline/doxycycline inducible vector pcDNA 5/TO (Life Technologies, Grand Island, NY). Four different ligand binding MAS mutants (F112A, I191A, M244A and T270A) were created using site-directed mutagenesis of WT myc-tagged MAS in pcDNA3.1 or pcDNA 5/TO vector background (Agilent Technologies, Santa Clara, CA). WT MAS receptor without an epitope tag was constructed by replacing the 5′ portion of the myc-tagged WT MAS in pcDNA 5/TO by untagged MAS sequence from a plasmid construct provided as a gift from Arena Pharmaceuticals, Inc. (San Diego, CA). The sequences of all WT and mutant MAS genes in plasmid constructs were verified by capillary DNA sequencing at the Genomics Core at Lerner Research Institute (Cleveland, OH).
IP1 levels in the cells were measured using the IP-One Tb kit (Cisbio US, Bedford, MA). For the assay, cells were seeded onto a 384-well low volume white cell culture plate at a density of 25,000 cells/well in 20 µl of induction or complete medium. In the IP1 assays the cell density of 25,000 cells/well was consistently maintained to minimize variability between independent experiments. The cells were maintained in a cell culture incubator for 26–28 h. The cells were then serum starved for 2 h by replacing the medium with 7 µl of serum free DMEM/F-12. During this step, 7 µl of serum free DMEM/F-12 was also added to the wells to which IP1 standards would be subsequently added. Following serum starvation, 7 µl of ligands and serially diluted IP1-standards prepared at 2x concentration in stimulation buffer (10 mM Hepes, 1 mM CaCl2, 0.5 mM MgCl2, 4.2 mM KCl, 146 mM NaCl, 5.5 mM glucose, 50 mM LiCl, pH 7.4) were added to the appropriate wells. The cells were then placed in the cell culture incubator for 4 h. Later, 3 µl each of d2-labeled IP1 and anti-IP1 cryptate Tb conjugated antibody diluted in lysis buffer was added sequentially to all the wells and the plate was incubated overnight in the dark at room temperature. Time-resolved ratiometric fluorescence emission measurements at 665 nm and 620 nm were taken after excitation at 343 nm on FlexStation 3 instrument. […]
(§2) For re-stimulation assays, the data is expressed as the percentage of maximum agonist stimulation to allow for ready comparison between individual experiments. For the IP1 assay, a standard curve was generated using the 4-Parameter logistic equation fit of the HTRF readings of IP1 standards using the SoftMax Pro software. […] In the luciferase assay, the luminescence measurements (RLU) are presented as a ratio of firefly to renilla luciferase activity. […]

MAS F112A mutant = molecular target: T2, MAS F112A mutant (Homo sapiens, UniProt P04201, F112A); test: IP1 assay, F112A MAS mutant stable cell line
T2 construct: expressed in transfected cells
T2 sequence (P04201 1-325 F112A): T1 sequence (P04201 1-325 I191A) with F112A, A191I
Source text: as §1
(§3) IP1 levels in the cells were measured using the IP-One Tb kit (Cisbio US, Bedford, MA). For the assay, cells were seeded onto a 384-well low volume white cell culture plate at a density of 25,000 cells/well in 20 µl of induction or complete medium. In the IP1 assays the cell density of 25,000 cells/well was consistently maintained to minimize variability between independent experiments. The cells were maintained in a cell culture incubator for 26–28 h. […] Time-resolved ratiometric fluorescence emission measurements at 665 nm and 620 nm were taken after excitation at 343 nm on FlexStation 3 instrument. […]
as §2

MAS T270A mutant = molecular target: T3, MAS T270A mutant (Homo sapiens, UniProt P04201, T270A); test: IP1 assay, T270A MAS mutant stable cell line
T3 construct: expressed in transfected cells
T3 sequence (P04201 1-325 T270A): T1 sequence (P04201 1-325 I191A) with A191I, T270A
Source text: as §1, §3, §2

MAS [1] = molecular target: T4, MAS (Homo sapiens, UniProt P04201); test: FLIPR calcium assay, induced myc-tagged WT MAS HEK293 stable cell line
T4 construct: expressed in transfected cells
T4 sequence (P04201 1-325): T1 sequence (P04201 1-325 I191A) with A191I
Experimental: The assay was performed using FLIPR Calcium 5 assay kit (Molecular Devices, Sunnyvale, CA). For calcium measurements, cells at a density of 125,000 cells/well in 100 µl medium were seeded onto a 96-well clear bottom black cell culture plate that was pre-coated with poly-L-lysine. In the calcium assays the cell density of 125,000 cells/well was consistently maintained to minimize variability between independent experiments. The cells were seeded in induction media to induce MAS expression or in complete media for negative controls. The plate was maintained in a cell culture incubator for 26–28 h. The cells were then serum starved for 2 h by replacing the medium with 100 µl of serum free DMEM. In the case of pre-treatment with pan-inhibitor of G protein signaling, BIM-46187, the cells were initially serum starved for 1 h by replacing the medium with 50 µl of serum free DMEM. After 1 h, 50 µl of BIM-46187 was added to the cells to a final concentration of 25 µM and treated for another 1 h. Following serum starvation, 100 µl of calcium sensitive dye along with 2x (2.5 mM final concentration) probenecid (Life Technologies, Grand Island, NY) was added to the cells. During this step, AR-inverse agonist or BIM-46187 was also added at desired concentrations to the calcium dye preparation in case of experiments where cells were pre-treated with these inhibitors. The cells were maintained for one hour in the cell culture incubator. Following this, the 96-well plate containing cells loaded with calcium dye and a U-bottom 96-well plate containing ligands at 5x the desired final concentration in D-PBS (1.47 mM KH2PO4, 138 mM NaCl, 2.67 mM KCl, 8.1 mM Na2HPO4, pH 7.3) were allowed to equilibrate for 15 min on a FlexStation 3 instrument (Molecular Devices, Sunnyvale, CA) at 37°C. The plates were further equilibrated on the instrument for 5 min with the lids removed from the plates. The instrument was programmed in FLEX mode to add ligands (50 µl at 5x concentration) to the cells and to monitor the fluorescence before and after adding the ligands. In re-stimulation and antagonism assays the instrument is programmed to add 35 µl of first ligand followed by addition of the second ligand (35 µl) after 10 min. […] Therefore, when using 5x ligand stock the maximum AR-agonist concentration that could be tested was 10 µM.
In the calcium assays, the maximum response and minimum response values in relative fluorescence units (RFU) were extracted by subtracting the corresponding baseline value wherein baseline is defined as the average fluorescence of all time points before addition of ligand.
The kinetic parameter t1/2 (time taken to reach half of the maximum response) was determined using SoftMax Pro software supplied with the FlexStation 3 instrument (Molecular Devices, Sunnyvale, CA).
For re-stimulation assays, the data is expressed as the percentage of maximum agonist stimulation to allow for ready comparison between individual experiments. […] For all the assays, the EC50 and IC50 values were estimated by fitting the data to a three parameter dose response using GraphPad Prism software (GraphPad, La Jolla, CA).

MAS [2] = molecular target: T4, MAS; test: HTRF IP1 assay, induced myc-tagged WT MAS HEK293 stable cell line
Experimental: IP1 levels in the cells were measured using the IP-One Tb kit (Cisbio US, Bedford, MA). For the assay, cells were seeded onto a 384-well low volume white cell culture plate at a density of 25,000 cells/well in 20 µl of induction or complete medium. In the IP1 assays the cell density of 25,000 cells/well was consistently maintained to minimize variability between independent experiments. The cells were maintained in a cell culture incubator for 26–28 h. The cells were then serum starved for 2 h by replacing the medium with 7 µl of serum free DMEM/F-12. During this step, 7 µl of serum free DMEM/F-12 was also added to the wells to which IP1 standards would be subsequently added. […] The cells were then placed in the cell culture incubator for 4 h. Later, 3 µl each of d2-labeled IP1 and anti-IP1 cryptate Tb conjugated antibody diluted in lysis buffer was added sequentially to all the wells and the plate was incubated overnight in the dark at room temperature. Time-resolved ratiometric fluorescence emission measurements at 665 nm and 620 nm were taken after excitation at 343 nm on FlexStation 3 instrument.
For the IP1 assay, a standard curve was generated using the 4-Parameter logistic equation fit of the HTRF readings of IP1 standards using the SoftMax Pro software. The IP1 concentrations in the experiments were extrapolated based on the standard curve parameters. […] For all the assays, the EC50 and IC50 values were estimated by fitting the data to a three parameter dose response using GraphPad Prism software (GraphPad, La Jolla, CA).

[3] = WT MAS, induced cells, inhibition of constitutive activity

| Compound | EC50 (MAS I191A mutant) | Fold over WT, EC50 IP1 assay (MAS I191A mutant) | EC50, IP1 assay (MAS F112A mutant) | EC50, IP1 assay (MAS T270A mutant) | t1/2 (time taken to reach half of the maximal calcium response), Calcium assay (MAS [1]; WT MAS) | EC50 (MAS [1]; WT MAS, induced cells) | Fold over WT, EC50 Calcium assay (MAS [1]; WT construct) | EC50 (MAS [2]; WT MAS, induced cells) | Fold over WT, EC50 IP1 assay (MAS [2]; WT construct) | Fold over WT, IC50 IP1 assay (MAS I191A mutant) | IC50 (MAS I191A mutant) | Fold over WT, IC50 IP1 assay (MAS F112A mutant) | IC50 (MAS F112A mutant) | Fold over WT, IC50 IP1 assay (MAS T270A mutant) | IC50 (MAS T270A mutant) | IC50 (MAS [1]; [3]) | IC50 (MAS [2]; [3]) | Fold over WT, IC50 IP1 assay (MAS [2]; WT construct) |
| --- | --- | --- | --- | --- | --- | --- | --- | --- | --- | --- | --- | --- | --- | --- | --- | --- | --- | --- |
| COc1cc([N+](=O)[O-])ccc1S(=O)(=O)N1CC(CN2CCN(c3ccccn3)CC2)C(c2cccc(F)c2)C1 (stereo not drawn) [AR-agonist] | 2400 ± 1100 nM | 1.8 | cbd | cbd | 31.2 ± 2.1 s | 1500 ± 300 nM | 1 | 1300 ± 300 nM | 1 |  |  |  |  |  |  |  |  |  |
| C=CCCN1CCC2(CC1)CN(C(=O)c1c(F)cccc1F)c1ccc(Cl)cc12 [AR-inverse] |  |  |  |  |  |  |  |  |  | 1.3 | 900 ± 100 nM | 3** | 2100 ± 400 nM | 2.5** | 1700 ± 30 nM | 900 ± 600 nM | 700 ± 100 nM | 1 |
